Measured values as given in patent publication US20090074815A1, “Immunomodulator Compounds as Vaccine Enhancers” (SCICLONE PHARMACEUTICALS, INC., priority 2005, published 2009).

Key:
[1] = tested on: thymic cells; test: ConA-induced proliferation of thymic cells (3H-thymidine uptake); format: in vivo, mice
Source text: Materials and Methods: Eighteen (18) to twenty (20) gram (g) male mice, purchased from the Rappolovo Animal Facility, Russia, were used in the studies described below. C57BL/6 (B6) mice were used to evaluate the effect of SCV-07 in non-immunized mice. CBAxC57BL/6 (F1) mice were used for studies of the effects of SCV-07 on the antigen-specific immune response. Mice were kept under the standard animal facility conditions and were provided with a standard diet and water ad libitum. Each treatment group included 4-5 mice. […] A suspension containing filling agents alone, which corresponded to the maximum amount of filling agents in the doses of SCV-07 administered to experimental animals, was used a control. […] Assessment of Mitogen- and Antigen-Induced Proliferation: […] Antigen-specific proliferation was studied by stimulating thymocytes and splenoctyes in vitro with different concentrations of OvA for 96 h. Twenty (20) to twenty-four (24) hours prior to completion of incubation, 3H-labeled thymidine (5 μCi/ml) was added to the cells. The cells were then transferred to fiberglass filters with a Titertek® semi-automatic cell harvester. Thymidine uptake was measured using a RackBeta 1217 (Wallac) liquid scintillation β-counter. For quantitative analysis of proliferation, the stimulation index (SI) was calculated as a ratio of the intensity of label inclusion in the stimulated cells to that in non-stimulated cells.

[2] = tested on: IFN-γ production by ConA-stimulated splenocytes; test: IFN-γ production by ConA-stimulated splenocytes (EIA); format: in vivo, mice
[3] = thymic cells, ConA 1 μg/ml, 0.01 μg/kg Tablet, per os
[4] = thymic cells, ConA 1 μg/ml, 0.01 μg/kg per os
[5] = thymic cells, ConA 1 μg/ml, 0.1 μg/kg Tablet, per os
[6] = thymic cells, ConA 1 μg/ml, 0.1 μg/kg i/p, Table 4
[7] = thymic cells, ConA 1 μg/ml, 0.1 μg/kg i/p, Table 5
[8] = thymic cells, ConA 1 μg/ml, 0.1 μg/kg per os
[9] = thymic cells, ConA 1 μg/ml, 1.0 μg/kg Tablet, per os
[10] = thymic cells, ConA 1 μg/ml, 1.0 μg/kg i/p, Table 4
[11] = thymic cells, ConA 1 μg/ml, 1.0 μg/kg i/p, Table 5
[12] = thymic cells, ConA 1 μg/ml, 1.0 μg/kg per os
[13] = thymic cells, ConA 1 μg/ml, 10.0 μg/kg Tablet, per os
[14] = thymic cells, ConA 1 μg/ml, 10.0 μg/kg per os
[15] = thymic cells, ConA 1 μg/ml, 100.0 μg/kg per os

Compound: N[C@H](CCC(=O)N[C@@H](Cc1c[nH]c2ccccc12)C(=O)O)C(=O)O [SCV-07, γ-D-glutamyl-L-tryptophan]
- minimal dose of SCV-07 given as a crushed tablet which caused significant enhancement of proliferation ([1]; crushed tablet per os, ConA 1 μg/ml): 0.1 µg/kg
- minimal SCV-07 dose which caused significant increase in proliferation of thymic cells ([1]; oral administration, the same as for i/p): 0.1 µg/kg
- Spontaneous proliferation (cpm) M ± SD ([1]; thymic cells, 0.01 μg/kg Tablet, per os): 308 ± 104 cpm
- Spontaneous proliferation (cpm) M ± SD ([1]; thymic cells, 0.01 μg/kg per os): 238 ± 64 cpm
- Spontaneous proliferation (cpm) M ± SD ([1]; thymic cells, 0.1 μg/kg Tablet, per os): 395 ± 136 cpm
- Spontaneous proliferation (cpm) M ± SD ([1]; thymic cells, 0.1 μg/kg i/p, Table 4): 268 ± 114 cpm
- Spontaneous proliferation (cpm) M ± SD ([1]; thymic cells, 0.1 μg/kg i/p, Table 5): 251 ± 36 cpm
- Spontaneous proliferation (cpm) M ± SD ([1]; thymic cells, 0.1 μg/kg per os): 250 ± 75 cpm
- Spontaneous proliferation (cpm) M ± SD ([1]; thymic cells, 1.0 μg/kg Tablet, per os): 355 ± 62 cpm
- Spontaneous proliferation (cpm) M ± SD ([1]; thymic cells, 1.0 μg/kg i/p, Table 4): 342 ± 83 cpm
- Spontaneous proliferation (cpm) M ± SD ([1]; thymic cells, 1.0 μg/kg i/p, Table 5): 555 ± 20 cpm
- Spontaneous proliferation (cpm) M ± SD ([1]; thymic cells, 1.0 μg/kg per os): 198 ± 44 cpm
- Spontaneous proliferation (cpm) M ± SD ([1]; thymic cells, 10.0 μg/kg Tablet, per os): 317 ± 77 cpm
- Spontaneous proliferation (cpm) M ± SD ([1]; thymic cells, 10.0 μg/kg per os): 246 ± 51 cpm
- Spontaneous proliferation (cpm) M ± SD ([1]; thymic cells, 100.0 μg/kg per os): 272 ± 98 cpm
- Induced proliferation (cpm) M ± SD [1, 3]: 3144 ± 582 cpm
- Stimulation index [1, 3]: 10.2
- Induced proliferation (cpm) M ± SD [1, 4]: 6698 ± 1465 cpm
- Stimulation index [1, 4]: 28.1
- Induced proliferation (cpm) M ± SD [1, 5]: 9900 ± 2021 cpm
- Stimulation index [1, 5]: 25.1
- Induced proliferation (cpm) M ± SD [1, 6]: 14261 ± 1400 cpm
- Stimulation index [1, 6]: 53.3
- Induced proliferation (cpm) M ± SD [1, 7]: 9897 ± 678 cpm
- Stimulation index [1, 7]: 39.4
- Induced proliferation (cpm) M ± SD [1, 8]: 9754 ± 1633 cpm
- Stimulation index [1, 8]: 39.1
- Induced proliferation (cpm) M ± SD [1, 9]: 10248 ± 1913 cpm
- Stimulation index [1, 9]: 28.9
- Induced proliferation (cpm) M ± SD [1, 10]: 20995 ± 6425 cpm
- Stimulation index [1, 10]: 61.4
- Induced proliferation (cpm) M ± SD [1, 11]: 33418 ± 3490 cpm
- Stimulation index [1, 11]: 49.7
- Induced proliferation (cpm) M ± SD [1, 12]: 20658 ± 5873 cpm
- Stimulation index [1, 12]: 104.6
- Induced proliferation (cpm) M ± SD [1, 13]: 7675 ± 1456 cpm
- Stimulation index [1, 13]: 24.2
- Induced proliferation (cpm) M ± SD [1, 14]: 13905 ± 2443 cpm
- Stimulation index [1, 14]: 56.6
- Induced proliferation (cpm) M ± SD [1, 15]: 27589 ± 1331 cpm
- Stimulation index [1, 15]: 101.4
- proliferation of cells stimulated by the optimal dose of ConA ([1]; thymic cells, per os or i/p, data not shown): did not significantly change
- IFN-γ ([2]; ConA 1 μg/ml, 0.01 μg/kg per os): 15499 pg/mL
- IFN-γ ([2]; ConA 1 μg/ml, 0.1 μg/kg i/p): 13089 pg/mL
- IFN-γ ([2]; ConA 1 μg/ml, 0.1 μg/kg per os): 15695 pg/mL
- IFN-γ ([2]; ConA 1 μg/ml, 1.0 μg/kg i/p): 30951 pg/mL
- IFN-γ ([2]; ConA 1 μg/ml, 1.0 μg/kg per os): 11411 pg/mL
- IFN-γ ([2]; ConA 1 μg/ml, 10.0 μg/kg per os): 8238 pg/mL
- IFN-γ ([2]; ConA 1 μg/ml, 100.0 μg/kg per os): 12990 pg/mL
- IFN-γ ([2]; ConA 5 μg/ml, 0.01 μg/kg per os): 63227 pg/mL
- IFN-γ ([2]; ConA 5 μg/ml, 0.1 μg/kg i/p): 87051 pg/mL
- IFN-γ ([2]; ConA 5 μg/ml, 0.1 μg/kg per os): 65692 pg/mL
- IFN-γ ([2]; ConA 5 μg/ml, 1.0 μg/kg i/p): 142155 pg/mL
- IFN-γ ([2]; ConA 5 μg/ml, 1.0 μg/kg per os): 47683 pg/mL
- IFN-γ ([2]; ConA 5 μg/ml, 10.0 μg/kg per os): 66185 pg/mL
- IFN-γ ([2]; ConA 5 μg/ml, 100.0 μg/kg per os): 43670 pg/mL
- IFN-γ ([2]; Spontaneous, 0.01 μg/kg per os): 0 pg/mL
